Assay results from patent US20250214968A1, “Novel Salt of GLP-1 Receptor Agonist Compound, Preparation Method Thereof and Pharmaceutical Composition Comprising Thereof” (Ildong Pharmaceutical Co., Ltd., priority 2022, published 2025).
≈ marks a conversion by molar mass, not a printed value. Where a name gives a salt, the structure may show the parent alone.

Assays:
Type in all cases: physicochemical
[1] = Hygroscopicity test, European Pharmacopoeia conditions, 25° C. and 80% RH; details: stored 24 hours at 25° C., 80% RH (EP conditions)
Procedure: Under the hygroscopicity test conditions of the European Pharmacopoeia (EP), the tromethamine salt prepared in Example 3 and the free base prepared in Comparative Example 1 were stored for 24 hours at a temperature of 25° C. and a relative humidity of 80%, and then the mass change of the sample due to moisture sorption was measured.

[2] = Drug stability evaluation under stress condition (80° C., open)
Procedure: The free base and the tromethamine salt of (S)-2-((4-(6-((5-cyanopyridin-2-yl)methoxy)pyridin-2-yl)piperazin-1-yl)methyl)-1-(oxetan-2-ylmethyl)-1H-benzo[d]imidazol-6-carboxylic acid were weighed into each vial and stored under stress conditions to investigate stability.
The stress conditions are as follows: • high temperature open room condition: 80° C.;
Samples were analyzed by XRPD and HPLC at the onset (Day 0) and week 1 of storage.

[3] = Thermogravimetric (TGA) analysis; details: TGA 20° C. to 350° C., 10° C./min, nitrogen
Procedure: Thermogravimetric (TGA) analysis was performed on the tromethamine salt prepared in Example 3, the free base prepared in Comparative Example 1, the L-arginine salt prepared in Comparative Example 2, the meglumine salt prepared in Comparative Example 3, and the potassium salt prepared in Comparative Example 4. Thermogravimetric analysis was performed from 20° C. to 350° C. at a heating rate of 10° C./min under nitrogen conditions using TGA Q50 manufactured by TA Instruments, Inc. The weight loss at about 170° C. or less for each salt was measured, and results thereof are shown in FIG. 2 (tromethamine salt), FIG. 3 (free base), FIG. 6 (L-arginine salt), FIG. 9 (meglumine salt), and 12 (potassium salt), and summarized in Table 4 below.

[4] = Solubility in water and bio-relevant media; details: for Final pH: after 24 hours stirring; for solubility at 24 h: thermodynamic from solid, room temperature, 2 mg/mL loading
Procedure: Solubility in water and bio-relevant media, i.e., stimulated gastric fluid (SGF), fasted state simulated intestinal fluid (FaSSIF), and fed state simulated intestinal fluid (FeSSIF) of the free base and the tromethamine salt of (S)-2-((4-(6-((5-cyanopyridin-2-yl)methoxy)pyridin-2-yl)piperazin-1-yl)methyl)-1-(oxetan-2-ylmethyl)-1H-benzo[d]imidazol-6-carboxylic acid was confirmed.
Buffers for the bio-relevant media were prepared as follows.
Water: Laboratory Milli-Q purified water.
SGF (Stimulated Gastric Fluid): 2.0 g of sodium chloride and 7 mL of hydrochloric acid dissolved in 1000 mL of water was used.
FaSSIF (Fasted State Simulated Intestinal Fluid): A commercial product purchased from Bio-Relevant Company and manufactured according to instructions was used.
FeSSIF (Fed State Simulated Intestinal Fluid): A commercial product purchased from Bio-Relevant Company and prepared according to instructions was used.
For the experiment, about 2 mg of compound (2 mg as free base form) was weighed into each glass vial and then 1 mL of medium was added (final concentration of 2 mg/mL). Then, the sample was continuously stirred for 24 hours in a magnetic stirrer at a speed of […] at room temperature. Then, the pH was measured and the mixture was filtered using MultiScreen®HTS-HV 96-well plate (Merck; 0.45 μm hydrophilic low protein binding Durapore® membrane). Solubility was analyzed using HPLC.

[5] = Hygroscopicity test by DVS, 25° C. and 90% RH; details: moisture sorption
Procedure: Samples in amounts of about 5 to 25 mg were tested for moisture sorption/desorption profiles at 25° C. under a 0% to 90% relative humidity (RH) cycle according to the pa-rameters in Table 2 below using DVS Intrinsic 1 manufactured by Surface Measurement System Ltd.
Hygroscopicity was measured for the tromethamine salt prepared in Example 3, the L-arginine salt prepared in Comparative Example 2, the meglumine salt prepared in Comparative Example 3, and the potassium salt prepared in Comparative Example 4. Results thereof are shown in FIGS. 14 to 17, respectively, and the results of the weight percent gain according to moisture sorption are shown in Table 6 below.

[6] = XRPD analysis of crystal form under various relative humidity conditions; details: 20° C.
Procedure: The X-ray powder diffraction (XRPD) pattern was measured using DYY884-AERIS-300 manufactured by PANalytical company, and analyzed with a step size of about 0.02° over the range of about 2° to 45° in the […].
The XRPD analysis of the crystalline form 1 of the tromethamine salt of (S)-2-((4-(6-((5-cyanopyridin-2-yl)methoxy)pyridin-2-yl)piperazin-1-yl)methyl)-1-(oxetan-2-ylmethyl)-1H-benzo[d]imidazol-6-carboxylic acid was performed under the conditions of varying relative humidity from 15% RH to 90% RH at 20° C., and the changes in the crystalline form according to the relative humidity were confirmed.

[7] = 80° C. (Week 1), high temperature open
[8] = simulated gastric fluid, SGF (pH 2.0)

Structure (SMILES) | Weight percent gain (%) [1] [%] | Chemical stability by HPLC purity % [2, 7] [%] | Chemical stability by HPLC purity % ([2]; Onset (Day 0)) [%] | Weight loss (%) at about 170° C. or less [3] [%] | Final pH ([4]; FaSSIF (pH 6.5)) | Final pH ([4]; FeSSIF (pH 5.8)) | Final pH ([4]; SGF (pH 2.0)) | Final pH ([4]; Water) | solubility at 24 h [4, 8] [µg/mL] | solubility at 24 h ([4]; FaSSIF (pH 6.5)) [µg/mL] | solubility at 24 h ([4]; FeSSIF (pH 5.8)) [µg/mL] | solubility at 24 h ([4]; Water) [µg/mL] | Weight percent gain (%) [5] [%] | further results
N#Cc1ccc(COc2cccc(N3CCN(Cc4nc5ccc(C(=O)O)cc5n4C[C@@H]4CCO4)CC3)n2)nc1 [Comparative Example 1, (S)-2-((4-(6-((5-cyanopyridin-2-yl)methoxy)pyridin-2-yl)piperazin-1-yl)methyl)-1-(oxetan-2-ylmethyl)-1H-benzo[d]imidazol-6-carboxylic acid] | 2.7 | 96.70 | 97.84 | 3.323 | 6.49 | 5.70 | 1.74 | 6.64 | 850 (≈ 1580 µM) | 160 (≈ 297 µM) | 63 (≈ 117 µM) | 106 (≈ 196 µM) |  | 
N#Cc1ccc(COc2cccc(N3CCN(Cc4nc5ccc(C(=O)O)cc5n4C[C@@H]4CCO4)CC3)n2)nc1.N=C(N)NCCC[C@H](N)C(=O)O [Comparative Example 2, L-arginine salt of (S)-2-((4-(6-((5-cyanopyridin-2-yl)methoxy)pyridin-2-yl)piperazin-1-yl)methyl)-1-(oxetan-2-ylmethyl)-1H-benzo[d]imidazol-6-carboxylic acid] |  |  |  | 7.368 |  |  |  |  |  |  |  |  | 6.84 | 
CNC[C@H](O)[C@@H](O)[C@H](O)[C@H](O)CO.N#Cc1ccc(COc2cccc(N3CCN(Cc4nc5ccc(C(=O)O)cc5n4C[C@@H]4CCO4)CC3)n2)nc1 [Comparative Example 3, meglumine salt of (S)-2-((4-(6-((5-cyanopyridin-2-yl)methoxy)pyridin-2-yl)piperazin-1-yl)methyl)-1-(oxetan-2-ylmethyl)-1H-benzo[d]imidazol-6-carboxylic acid] |  |  |  | 2.8132 |  |  |  |  |  |  |  |  | 17.77 | 
N#Cc1ccc(COc2cccc(N3CCN(Cc4nc5ccc(C(=O)[O-])cc5n4C[C@@H]4CCO4)CC3)n2)nc1.[K+] [Comparative Example 4, potassium salt of (S)-2-((4-(6-((5-cyanopyridin-2-yl)methoxy)pyridin-2-yl)piperazin-1-yl)methyl)-1-(oxetan-2-ylmethyl)-1H-benzo[d]imidazol-6-carboxylic acid] |  |  |  | 4.284 |  |  |  |  |  |  |  |  | 5.97 | 
N#Cc1ccc(COc2cccc(N3CCN(Cc4nc5ccc(C(=O)O)cc5n4C[C@@H]4CCO4)CC3)n2)nc1 [Example 3, tromethamine salt of (S)-2-((4-(6-((5-cyanopyridin-2-yl)methoxy)pyridin-2-yl)piperazin-1-yl)methyl)-1-(oxetan-2-ylmethyl)-1H-benzo[d]imidazol-6-carboxylic acid] | 0.22 | 97.32 | 97.99 | 0.1207 | 6.50 | 5.85 | 1.90 | 7.21 | 710 | > 2000 | 336 | > 2000 | 1.44 | Weight percent gain (%) ([5]; listed as tromethamine salt): about 1.44%; change in the XRPD pattern ([2]; harsh conditions, 80° C., week 1): did not show any change in the XRPD pattern; purity change rate ([2]; harsh conditions, 80° C., week 1 vs day 0): less than 1%; Crystalline Form ([6]; 15% RH, during desorption): Form 1; Crystalline Form ([6]; 15% RH, increasing humidity): 1; Crystalline Form ([6]; 20% RH, increasing humidity): 1; Crystalline Form ([6]; 25% RH, increasing humidity): 1; Crystalline Form ([6]; 30% RH, during desorption): Form 1; Crystalline Form ([6]; 30% RH, increasing humidity): 1; Crystalline Form ([6]; 35% RH, increasing humidity): 1; Crystalline Form ([6]; 40% RH, during desorption): Form 1; Crystalline Form ([6]; 40% RH, increasing humidity): 1; Crystalline Form ([6]; 45% RH, increasing humidity): 1; Crystalline Form ([6]; 50% RH, during desorption): intermediate; Crystalline Form ([6]; 50% RH, increasing humidity): 1; Crystalline Form ([6]; 55% RH, increasing humidity): 1A; Crystalline Form ([6]; 60% RH, increasing humidity): 1A
